In patent US7183267B2, “β-lactamase inhibitors and methods of use thereof” (priority 2003, dated 2007):
Converted amounts (≈) assume the structure as drawn.

Columns and labels:
Type in all cases: cell-based
[1] = tested on: methicillin resistant S. aureus from Stanford University Hospital (MRSA-SU); assay: MIC assay, broth microdilution, MRSA-SU; conditions: Staphylococcus aureus, MRSA, 24 h
From the text: (2) methicillin resistant S. aureus from Stanford University Hospital Clinical Microbiology/Virology Laboratory (MRSA-SU). […] Such Staphylococci are also resistant to all penicillins, and all cephalosporins, in addition to all β-lactamase inhibitor combinations (including ampicillin/sulbactarn, amoxicillin/clavulanic acid, piperacillin/tazobactam), imipenem, and meropenem; and
(§1) The strains were processed according to procedures recommended by ATCC, or procedures that are routinely used. Single colonies of each organism were picked for purification to generate pure working cultures. Prior to each experiment each strain was subcultured on a fresh Mueller-Hinton agar plate (MHA).
(§2) Inocula for the MIC assays were prepared by transferring a tiny portion of one colony from a MHA plate to 2 ml of Mueller-Hinton broth (MHB) such that the estimated cell density was about 10^7 colony forming unit (CFU)/ml. This cell suspension was then further diluted 10-fold (to 10^6 CFU/ml) by transferring the 2 ml cell suspension to 18 ml of MHB. Addition of 50 μl of this dilute cell suspension to 50 μl of growth medium yielded the desired cell density, namely about 5×10^4 CFU/well, or 5×10^5 CFU/ml.
(§3) The MIC value of oxacillin was determined using the broth microdilution procedure recommended by the National Committee of Clinical Laboratory Standards (NCCLS, 2000).
(§4) The MIC experiments were performed in duplicate in 96-well microtiter plates using MHB. A stock solution of 2.6 mg/0.5 ml was prepared in dimethylsulfoxide (DMSO). A total of 8 two-fold serial dilutions were made with DMSO. Initial oxacillin doses used were (μg/ml): 64, 32, 16, 8, 4, 2, 1, and 0.5. Doses were adjusted in the confirmatory experiment, if needed, in order to establish an actual MIC value.
(§5) To each well of a 96 well microtiter plate was added 47.5 μl of MHB. A volume of 2.5 μl of each dilution of oxacillin was then transferred to appropriate wells containing the medium. All wells, except the sterility control wells, were then inoculated with 50 μl of a diluted cell suspension to give a final volume of 100 μl and a final cell density of 5×10^4 CFU/well. The volume in the sterility control wells was adjusted to 100 μl with MHB. A sterile pipette tip was used to mix the contents of each well (one tip was used going from the low to the high concentration in the same column). The microtiter plates were covered with the lids and were placed in large Stratagene Big Blue plates (Cat. # 400041). Four large kimwipes moistened with tap water were placed near the edges of the Stratagene plates to prevent evaporation of the medium. The microtiter plates were incubated for at least 24 hours at 35° C. The plates were then evaluated for growth in each well. Controls included: medium sterility and negative control (medium and bacteria only).
(§6) The procedure used to determine the antimicrobial activity of the compounds of the present invention was identical to the broth microdilution procedure described above with the exception of the preparation of the stock solutions. Stock solution at concentration of 40.96 mg/0.5 ml was prepared in DMSO for each of the compounds. A total of 8 two-fold dilutions were then made in DMSO. A volume of 2.5 μl of each dilution was delivered to appropriate wells. The initial doses used were (μg/ml): 512, 256, 128, 64, 32, 16, 8, and 4.
(§7) A numerical code was used to evaluate the extent of growth as indicated below. • 0: absence of growth • 1: barely visible (faint) growth • 2: fair growth but less than the negative solvent control • 3: growth is equivalent to the negative solvent control.
(§8) The lowest dose at which no visible growth is observed was determined to be the MIC value.
(§9) MIC assays were performed with oxacillin and the four compounds. Each of the compounds was tested at the following 8 doses (μg/ml): 512, 256, 128, 64, 32, 16, 8, and 4. Oxacillin was tested at the following 8 doses (μg/ml): 64, 32, 16, 8, 4, 2, 1, and 0.5.

[2] = tested on: methicillin resistant S. aureus ATCC 33591 (MRSA-ATCC); assay: MIC assay, broth microdilution, MRSA-ATCC; conditions: Staphylococcus aureus, 24 h
Experimental: (1) methicillin resistant S. aureus ATCC 33591 (MRSA-ATCC). This strain was obtained from American Type Culture Collection (ATCC), Manassas, Md.;
as §1, §2, §3, §4, §5, §6, §7, §8, §9

[3] = tested on: methicillin resistant S. aureus from Stanford University Hospital (MRSA-SU); assay: Matrix system: oxacillin plus β-lactamase inhibitor, MRSA-SU
Experimental: as §5, §7, §8
The effect of the four compounds of the present invention on oxacillin resistance of the MRSA strains was determined using a matrix system. The β-lactamase inhibitors were tested at 5 doses against up to eleven concentrations of oxacillin. […] A 96-well microtiter plate was used for the matrix system. The procedure was identical to that described above for the MIC determination, with the exception that both oxacillin and one each of the β-lactamase inhibitors was added, 2.5 μl each, to the wells prior to addition of the test organisms.
Matrix Study:Oxacillin and Compound FL201 with MRSA-SU
Matrix Study: Oxacillin and Compound FL202 with MRSA-SU

[4] = tested on: methicillin sensitive S. aureus ATCC 25923 (MSSA); assay: MIC assay, broth microdilution, MSSA; conditions: Staphylococcus aureus, 24 h
Experimental: (3) methicillin sensitive S. aureus ATCC 25923 (MSSA). This strain was obtained from ATCC and was used as a control.
as §1, §2, §3, §4, §5, §6, §7, §8, §9

O=C(OCc1ccccc1)c1cc(B(O)O)cc([N+](=O)[O-])c1 [Compound F1201]
MIC [1]: 32 µg/mL
MIC [2]: 32 µg/mL (≈ 106 µM)
MIC (oxacillin) ([3]; Table 17, in presence of F1201 2 μg/ml): 64 µg/mL
MIC (oxacillin) ([3]; Table 17, in presence of F1201 4 μg/ml): 16 µg/mL
MIC (oxacillin) ([3]; Table 17, in presence of F1201 8 μg/ml): 0.5 µg/mL
MIC (oxacillin) ([3]; Table 17, in presence of F1201 16 μg/ml): <0.064 µg/mL
growth score ([3]; Table 17, oxacillin 0, F1201 2 μg/ml): 3
growth score ([3]; Table 17, oxacillin 0, F1201 4 μg/ml): 2
growth score ([3]; Table 17, oxacillin 0, F1201 8 μg/ml): 2
growth score ([3]; Table 17, oxacillin 0, F1201 16 μg/ml): 1
growth score ([3]; Table 17, oxacillin 0, F1201 32 μg/ml): 0
growth score ([3]; Table 17, oxacillin 0.064 μg/ml + F1201 2 μg/ml): 2
growth score ([3]; Table 17, oxacillin 0.064 μg/ml + F1201 4 μg/ml): 2
growth score ([3]; Table 17, oxacillin 0.064 μg/ml + F1201 8 μg/ml): 1
growth score ([3]; Table 17, oxacillin 0.064 μg/ml + F1201 16 μg/ml): 0
growth score ([3]; Table 17, oxacillin 0.064 μg/ml + F1201 32 μg/ml): 0
growth score ([3]; Table 17, oxacillin 0.125 μg/ml + F1201 2 μg/ml): 2
growth score ([3]; Table 17, oxacillin 0.125 μg/ml + F1201 4 μg/ml): 2
growth score ([3]; Table 17, oxacillin 0.125 μg/ml + F1201 8 μg/ml): 1
growth score ([3]; Table 17, oxacillin 0.125 μg/ml + F1201 16 μg/ml): 0
growth score ([3]; Table 17, oxacillin 0.125 μg/ml + F1201 32 μg/ml): 0
growth score ([3]; Table 17, oxacillin 0.25 μg/ml + F1201 2 μg/ml): 2
growth score ([3]; Table 17, oxacillin 0.25 μg/ml + F1201 4 μg/ml): 1
growth score ([3]; Table 17, oxacillin 0.25 μg/ml + F1201 8 μg/ml): 1
growth score ([3]; Table 17, oxacillin 0.25 μg/ml + F1201 16 μg/ml): 0
growth score ([3]; Table 17, oxacillin 0.25 μg/ml + F1201 32 μg/ml): 0
growth score ([3]; Table 17, oxacillin 0.5 μg/ml + F1201 2 μg/ml): 2
growth score ([3]; Table 17, oxacillin 0.5 μg/ml + F1201 4 μg/ml): 1
growth score ([3]; Table 17, oxacillin 0.5 μg/ml + F1201 8 μg/ml): 0
growth score ([3]; Table 17, oxacillin 0.5 μg/ml + F1201 16 μg/ml): 0
growth score ([3]; Table 17, oxacillin 0.5 μg/ml + F1201 32 μg/ml): 0
growth score ([3]; Table 17, oxacillin 1 μg/ml + F1201 2 μg/ml): 1
growth score ([3]; Table 17, oxacillin 1 μg/ml + F1201 4 μg/ml): 1
growth score ([3]; Table 17, oxacillin 1 μg/ml + F1201 8 μg/ml): 0
growth score ([3]; Table 17, oxacillin 1 μg/ml + F1201 16 μg/ml): 0
growth score ([3]; Table 17, oxacillin 1 μg/ml + F1201 32 μg/ml): 0
growth score ([3]; Table 17, oxacillin 2 μg/ml + F1201 2 μg/ml): 1
growth score ([3]; Table 17, oxacillin 2 μg/ml + F1201 4 μg/ml): 1
growth score ([3]; Table 17, oxacillin 2 μg/ml + F1201 8 μg/ml): 0
growth score ([3]; Table 17, oxacillin 2 μg/ml + F1201 16 μg/ml): 0
growth score ([3]; Table 17, oxacillin 2 μg/ml + F1201 32 μg/ml): 0
growth score ([3]; Table 17, oxacillin 4 μg/ml + F1201 2 μg/ml): 1
growth score ([3]; Table 17, oxacillin 4 μg/ml + F1201 4 μg/ml): 1
growth score ([3]; Table 17, oxacillin 4 μg/ml + F1201 8 μg/ml): 0
growth score ([3]; Table 17, oxacillin 4 μg/ml + F1201 16 μg/ml): 0
growth score ([3]; Table 17, oxacillin 4 μg/ml + F1201 32 μg/ml): 0
growth score ([3]; Table 17, oxacillin 16 μg/ml + F1201 2 μg/ml): 1
growth score ([3]; Table 17, oxacillin 16 μg/ml + F1201 4 μg/ml): 0
growth score ([3]; Table 17, oxacillin 16 μg/ml + F1201 8 μg/ml): 0
growth score ([3]; Table 17, oxacillin 16 μg/ml + F1201 16 μg/ml): 0
growth score ([3]; Table 17, oxacillin 16 μg/ml + F1201 32 μg/ml): 0
growth score ([3]; Table 17, oxacillin 64 μg/ml + F1201 2 μg/ml): 0
growth score ([3]; Table 17, oxacillin 64 μg/ml + F1201 4 μg/ml): 0
growth score ([3]; Table 17, oxacillin 64 μg/ml + F1201 8 μg/ml): 0
growth score ([3]; Table 17, oxacillin 64 μg/ml + F1201 16 μg/ml): 0
growth score ([3]; Table 17, oxacillin 64 μg/ml + F1201 32 μg/ml): 0
growth score ([3]; Table 17, oxacillin 128 μg/ml + F1201 2 μg/ml): 0
growth score ([3]; Table 17, oxacillin 128 μg/ml + F1201 4 μg/ml): 0
growth score ([3]; Table 17, oxacillin 128 μg/ml + F1201 8 μg/ml): 0
growth score ([3]; Table 17, oxacillin 128 μg/ml + F1201 16 μg/ml): 0
growth score ([3]; Table 17, oxacillin 128 μg/ml + F1201 32 μg/ml): 0
growth score ([3]; Table 17, oxacillin 256 μg/ml + F1201 2 μg/ml): 0
growth score ([3]; Table 17, oxacillin 256 μg/ml + F1201 4 μg/ml): 0
growth score ([3]; Table 17, oxacillin 256 μg/ml + F1201 8 μg/ml): 0
growth score ([3]; Table 17, oxacillin 256 μg/ml + F1201 16 μg/ml): 0
growth score ([3]; Table 17, oxacillin 256 μg/ml + F1201 32 μg/ml): 0
MIC [4]: 32 µg/mL (≈ 106 µM)
